Here are results for two compounds from US20240099967A1, “INHALABLE COMPOSITION OF CLOFAZIMINE AND METHODS OF USE THEREOF” (priority 2017, published 2024).

A short description of data set [1]: Geometric particle size distribution by HELOS laser diffraction with RODOS dispersion. The settings on record: averaged n = 3. The format is physicochemical.
Data set [2] concerns Mycobacterium leprae, Mycobacterium avium complex (MAC), and M. tuberculosis. The following applies: against mycobacterium such as M. leprae; cited from earlier work.
The conditions of data set [3]: Sabnis et al., 2015; cited from earlier work.
The subject of another data set is J774.A1 macrophages. Description: Flow cytometric quantification of clofazimine uptake and biotransformation to liquid crystals. The format is cell-based, murine. In general terms: In flow cytometry, cells or beads pass a laser one at a time.

As for `CC(C)N=c1cc2n(-c3ccc(Cl)cc3)c3ccccc3nc-2cc1Nc1ccc(Cl)cc1` [clofazimine, N,5-bis(4-chlorophenyl)-3-(1-methylethylimino)-5H-phenazin-2-amine], the Span in data set [1] turned out to be 2.62. For the same compound, the X10 in data set [1] (first column) is listed as 1.55 μm; in data set [1] (second column), 7.90 μm; in data set [1] (third column), 21.96 μm. Besides, the “minimum inhibitory concentration (MIC)” value in data set [2] was 0.125 to 2 µg/mL. For the same compound, the “clofazimine solution in methanol that can be formed” value in data set [3] was 0.1%.

Turning to `CC(C)/N=c1\cc2n(-c3ccc(Cl)cc3)c3ccccc3nc-2cc1Nc1ccc(Cl)cc1` [solubilized clofazimine], the “cells fluorescent at 660 nm emission (biotransformation to liquid crystals)” value in the data set on J774.A1 macrophages (J774.A1, 24 hours exposure) worked out at 0.21%. Also, the “cells containing drug, fluorescence at 610 nm emission (crystalline clofazimine)” value in the data set with J774.A1 macrophages (J774.A1, 24 hours exposure, 10,000 cells) came out at 2.48%. Further, the “cell proliferation/viability compared to control” value in the data set with J774.A1 cells is recorded as “significant decrease”.
